Values of other authors, collected in PMC4474859 (PLoS ONE, 2015).

What was measured:
Impα/Impβ complex = settings: full length protein vs NLS peptide
From the text: (§1) Affinity assays between NLS peptides and Impα proteins have been performed based in indirect affinity measurements, using Surface Plasmon Resonance (SPR), and ITC [19, 38, 55]. Indirect affinity measurements between NLSs and Impα proteins reported dissociation constants in the nM range and permitted the comparison among these molecules. SPR experiments was only able to estimate the peptide-protein affinity in the μM range which was lately confirmed by ITC experiments.

MmImpα = settings: in words
From the text: as §1

## full length nucleoplasmin protein: full length nucleoplasmin protein binds to Impα/Impβ complex
Impα/Impβ complex
  increase in affinity compared to just nucleoplasmin NLS peptide: 2 fold

## GSIIRKWN [hPLSCR4 NLS peptide]
MmImpα
  binding site on MmImpα: binds only the minor site of MmImpα
